Laboratory results reported in patent US20040248775A1, “Methods for screening inhibitors of apoptosis” (Wyeth, priority 2003, published 2004).

Molecular target: T1, His6-NALP1 wild-type (Homo sapiens, UniProt Q9C000)
T1 construct: made in house; host or cells: COS-7 cells, transient transfection, Ni-NTA purification
T1 sequence (Q9C000 1-1473): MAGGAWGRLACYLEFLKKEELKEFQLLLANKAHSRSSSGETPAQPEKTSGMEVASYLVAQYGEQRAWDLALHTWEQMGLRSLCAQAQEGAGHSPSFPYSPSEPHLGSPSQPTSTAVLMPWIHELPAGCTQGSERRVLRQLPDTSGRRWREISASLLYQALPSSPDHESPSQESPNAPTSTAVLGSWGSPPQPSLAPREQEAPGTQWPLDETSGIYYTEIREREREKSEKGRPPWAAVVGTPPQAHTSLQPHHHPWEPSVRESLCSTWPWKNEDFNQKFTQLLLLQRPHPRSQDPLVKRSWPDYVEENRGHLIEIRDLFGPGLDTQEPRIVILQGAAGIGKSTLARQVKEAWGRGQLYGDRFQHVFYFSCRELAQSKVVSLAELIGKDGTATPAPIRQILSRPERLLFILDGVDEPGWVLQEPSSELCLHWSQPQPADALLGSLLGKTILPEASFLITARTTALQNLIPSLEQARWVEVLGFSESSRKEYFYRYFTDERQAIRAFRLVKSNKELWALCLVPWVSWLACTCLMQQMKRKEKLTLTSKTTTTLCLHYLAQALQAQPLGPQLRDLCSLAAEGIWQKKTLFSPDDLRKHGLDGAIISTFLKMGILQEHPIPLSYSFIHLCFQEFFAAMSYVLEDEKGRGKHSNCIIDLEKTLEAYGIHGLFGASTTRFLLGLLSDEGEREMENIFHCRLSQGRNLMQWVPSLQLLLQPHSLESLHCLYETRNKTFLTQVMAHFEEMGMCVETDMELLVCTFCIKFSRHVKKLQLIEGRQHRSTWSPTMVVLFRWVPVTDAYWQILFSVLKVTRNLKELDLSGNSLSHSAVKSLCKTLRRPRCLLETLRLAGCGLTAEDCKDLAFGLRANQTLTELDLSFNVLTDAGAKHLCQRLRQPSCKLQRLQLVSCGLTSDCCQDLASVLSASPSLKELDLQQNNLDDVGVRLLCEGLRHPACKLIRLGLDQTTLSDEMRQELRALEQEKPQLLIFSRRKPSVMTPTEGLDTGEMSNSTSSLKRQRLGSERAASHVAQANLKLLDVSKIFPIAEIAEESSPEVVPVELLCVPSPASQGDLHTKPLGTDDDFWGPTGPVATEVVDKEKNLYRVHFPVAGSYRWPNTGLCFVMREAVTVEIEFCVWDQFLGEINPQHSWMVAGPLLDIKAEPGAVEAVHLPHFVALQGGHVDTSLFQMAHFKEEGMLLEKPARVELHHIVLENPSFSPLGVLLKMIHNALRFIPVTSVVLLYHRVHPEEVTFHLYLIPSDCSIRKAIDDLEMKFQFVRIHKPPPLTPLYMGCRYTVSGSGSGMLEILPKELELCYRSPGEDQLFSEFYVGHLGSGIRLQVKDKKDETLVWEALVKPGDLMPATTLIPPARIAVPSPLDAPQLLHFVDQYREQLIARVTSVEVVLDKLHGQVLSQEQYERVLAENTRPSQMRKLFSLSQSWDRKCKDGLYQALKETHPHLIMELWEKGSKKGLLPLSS
Assay: Ni flashplate dATPα35S binding assay, wild-type His6-NALP1
Settings: 8 nM dATPα35S displaced by non-radiolabeled dATP
Protocol: Production of purified NALP-Flashplate binding assay. NALP1 protein for in vitro binding assays was purified from transiently transfected cells. COS-7 cells were plated in DMEM, 10% fetal calf serum with amino acid supplements and antibiotics and allowed to grow to approximately 50% confluency. Large-scale preparations were performed in Cell Factories (NUNC) with approximately 600 μg plasmid DNA. Polyfect transfection reagent (Qiagen) was used as described by the manufacturer. After 24 hours, cells were collected by trypsinization, washed with fresh medium and then with PBS. Cells were lysed by resuspension in 10× cell volume of lysis buffer (140 mM NaCl, 0.1% Triton-X100, 0.1 mM DTT, 20 mM HEPES at pH 7.4 and protease inhibitor cocktail (Roche Diagnostics BmbH)). Lysates were centrifuged at approximately 7400×g for 30 minutes and supernatants were supplemented with glycerol to a final concentration of 10% and stored at −70° C. until purification. Protein concentrations were measured and samples normalized. Extracts were mixed with 1 ml Ni-NTA agarose equilibrated with the same buffer for 1 hour at 4° C. in the tube. Disposable columns were filled with the resin and flow-through collected. […] Reactions were stopped by aspirating solutions and washed once with Buffer B. Plates were counted in a Top Count scintillation counter (Packard).

specific binding of dATP to wild-type NALP1: specific binding
SMILES: Nc1ncnc2c1ncn2[C@H]1C[C@H](O)[C@@H](COP(=O)(O)OP(=O)(O)OP(=O)(O)O)O1 [dATP]
